The nature of data set [1]: Cytotoxicity, MTT reduction assay, HELA cells. It counts as cell-based. The following applies: 48 h, 12.5-50 μM. How it is done:
(§1) Mouse pre-B cells were cultured in RPMI1640 plus 5% FBS, antibiotic/antimycotic, non essential amino acid, 50 μM β-mercaptoethanol and 1 mM natrium pyruvate. HELA cells were maintained in RPMI1640 plus 10% FBS, pen/strept and 2 mM L-glutamine. Cos-7 cells were grown in DMEM medium with […] glucose supplemented with 10% FCS, pen/strept and 2 mM L-glutamine. All cell lines were grown at 37° C. at 5% CO2. Cell media, media supplements, PBS-buffer, HEPES, antibiotic/antimycotic, pen/strept, non essential amino acid, L-glutamine, β-mercaptoethanol and sera were purchased from Gibco (Pailsey, UK). All fine chemicals were supplied by Merck (Darmstadt, Germany).
(§2) The cytotoxicity of the peptides to HELA cells (Acc57) and COS-7 cells (CRL-1651) was determined using the MTT reduction assay (T. Mossman, J. Immunol. Meth. 1983, 65, 55-63; M. V. Berridge, A. S. Tan, Arch. Biochem. Biophys. 1993, 303, 474-482). Briefly, the method was as follows: 4000 HELA cells/well and 3400 COS-7 cells/well were seeded and grown in 96-well microtiter plates for 24 h at 37° C. at 5% CO2. Thereafter, time zero (Tz) was determined by MTT reduction (see below). The supernatant of the remaining wells was discarded, and fresh medium and compounds in serial dilutions (12.5, 25 and 50 μM, triplicates) were pipetted into the wells. After incubation of the cells for 48 h at 37° C. at 5% CO2 the supernatant was discarded again and 100 μL MTT reagent (0.5 mg/mL in RPMI1640 and DMEM, respectively)/well was added. Following incubation at 37° C. for 2-4 h the media were aspirated and the cells were spiked (100 μL isopropanol/well). The absorbance of the solubilized formazan was measured at 595 nm (OD595peptide). For each concentration averages were calculated from triplicates. The percentage of growth was calculated as follows: (OD595peptide-OD595Tz-OD595Empty well)/(OD595Tz-OD595Empty well)×100%. The GI50 (Growth Inhibition) concentrations were calculated for each peptide by using a trend line function for the concentrations (50, 25, 12.5 and 0 μM), the corresponding percentages and the value 50, (=TREND (C50: C0, %50:%0,50).
Background: Tetrazolium assays rely on reduction of a dye to a coloured formazan, in cell work by metabolically active cells.

Data set [2] can be described thus: Cytotoxicity, MTT reduction assay, COS-7 cells. It counts as cell-based. Conditions: 48 h, 12.5-50 μM. How it is done:
as §1, §2

A short description of data set [3]: Plasma stability in human plasma. In kind it is in vitro ADME. The following applies: human plasma, 37° C.; for remaining at 24 h, 10 μM: 1440 min, read-out: human pl. cpd left at 1440 min; for human pl. T1/2 / half-life: up to 1440 min; for half-life: read-out: human pl. T1/2. How it is done: (§3) Percent hemolysis was calculated as follows: (OD540peptide/OD540H2O)×100%. 2.6. Plasma Stability
(§4) The stability of the peptides in human and mouse plasma was determined by applying the following method: 346.5 μL/deep well of freshly thawed human plasma (Basler Blutspendedienst) and mouse plasma (Harlan Sera-Lab, UK), respectively, were spiked with 3.5 μL/well of compound dissolved in DMSO/H2O ([…] [v/v], 1 mM, triplicate) and incubated at 37° C. At t=0, 15, 30, 60, 120, 240 and 1440 min aliquots of 50 μL were transferred to filtration plate wells containing 150 μL/well of 2% formic acid in acetonitrile. Following shaking for 2 min the occurred suspensions were filtrated by vacuum and 50 μL of each filtrate was mixed with 100 μL of 1% formic acid in H2O. After transfer to a propylene microtiter plate, the filtrates were analyzed by LC/MS as follows: Column: Waters, XBridge C18, mobile phases: (A) water+0.1% formic acid and (B) acetonitrile/water, 95/5 (v/v)+0.1% formic acid, gradient: 5%-100% (B) in 2 minutes, electrospray ionization, MRM detection (triple quadrupole). The peak areas were determined and triplicate values are averaged. The stability is expressed in percent of the initial value at t=0. (tx/t0×100). By using the TREND function of EXCEL (Microsoft Office 2003) T1/2 were determined.

A short description of data set [4]: Plasma stability in mouse plasma. The following applies: mouse plasma, 37° C.; for remaining at 24 h, 10 μM: 1440 min, read-out: mouse pl. cpd left at 1440 min; for mouse pl. T1/2: up to 1440 min. In kind it is in vitro ADME. How it is done:
as §3, §4

Structures are written as SMILES. Numbered stars: 1 amine (or outer) side, 2 acyl side, 3 side chain; on linkers, the order of the positions; unused ones are H or OH. Bridge positions count the residues as written; N and C are the ends. Square brackets hold non-standard residues; d marks the D form. Side chains are listed from the residue outwards. Peptide text beside a SMILES is read from it. * marks the point of attachment. Cholyl = C[C@H](CCC(=O)*)[C@H]1CC[C@H]2[C@@H]3[C@H](O)C[C@@H]4C[C@H](O)CC[C@]4(C)[C@H]3C[C@H](O)[C@]12C; Adamantane1carbonyl = O=C(C12CC3CC(CC(C3)C1)C2)*; Hexadecanoyl(16-OH) = O=C(CCCCCCCCCCCCCCCO)*; X1 = O=C([C@H]1C[C@H](N[*:3])CN1[*:1])[*:2]; NH(1-Adamantyl) = C1C2CC3CC1CC(N*)(C2)C3; Gly(decyl) = CCCCCCCCCC[C@H](N)C(=O)O; Myristoyl = CCCCCCCCCCCCCC(=O)*; Octanoyl = CCCCCCCC(=O)*; Dab = NCC[C@H](N)C(=O)O

By GI50 is commonly meant the concentration at which growth is held to half of that of the control. Low readings indicate more potent growth inhibition, high ones less potent growth inhibition.

Consider `CCCCCCCCCC[C@@H]1NC(=O)[C@H](Cc2ccc(O)cc2)NC(=O)[C@@H]2CSSC[C@H](NC(=O)[C@H](Cc3ccc(O)cc3)NC(=O)[C@H](Cc3c[nH]cn3)NC(=O)[C@H](Cc3ccc(O)cc3)NC(=O)[C@@H]3CCCN3C(=O)[C@H]3CCCN3C(=O)[C@H](CCCCN)NC1=O)C(=O)N[C@@H](CCCNC(=N)N)C(=O)N[C@@H](C)C(=O)N1CCC[C@@H]1C(=O)N[C@@H](CCN)C(=O)N[C@@H](CCCNC(=N)N)C(=O)N[C@@H](Cc1ccc(O)cc1)C(=O)N2` [Ex. 8] (cyclo(YHYCRA[dP][Dab]RYCY[Gly(decyl)]K[dP]P); disulfide 4-11), for which the GI50 in data set [1] (HELA cells) was over 26 µM. For the same molecule, the GI50 in data set [2] (COS-7 cells) was over 44 µM. In data set [3], the remaining at 24 h, 10 μM came out at 79% and the “human pl. T1/2” value was 24 h. In data set [4], the remaining at 24 h, 10 μM was determined as 82% and the “mouse pl. T1/2” value is 24 h.

Turning to `C[C@@H](O)[C@@H]1NC(=O)[C@H](Cc2c[nH]cn2)NC(=O)[C@H](Cc2ccc(O)cc2)NC(=O)[C@@H]2CCCN2C(=O)[C@H]2CCCN2C(=O)[C@H](CCCCNC(=O)C23CC4CC(CC(C4)C2)C3)NC(=O)[C@H](CCC(N)=O)NC(=O)[C@H](Cc2ccc(O)cc2)NC(=O)[C@@H]2CSSC[C@H](NC1=O)C(=O)N[C@@H](CCCNC(=N)N)C(=O)NCC(=O)N1CCC[C@@H]1C(=O)N[C@@H](CCN)C(=O)N[C@@H](CCCNC(=N)N)C(=O)N[C@@H](Cc1ccc(O)cc1)C(=O)N2` [Ex. 35] (cyclo(YHTCRG[dP][Dab]RYCYQK(Adamantane1carbonyl)[dP]P); disulfide 4-11), in data set [1], the GI50 was over 50 µM. The molecule also returned a GI50 in data set [2] of over 30 µM. Besides, in data set [3], the remaining at 24 h, 10 μM was determined as 63% and the “human pl. T1/2” value was 24 h.

Consider `C[C@@H]1NC(=O)[C@H](CO)NC(=O)[C@@H]2CSSC[C@H](NC(=O)[C@H](Cc3ccc(O)cc3)NC(=O)[C@H](CCCNC(=N)N)NC(=O)[C@H](CCN)NC(=O)[C@H]3CCCN3C1=O)C(=O)N[C@@H](Cc1ccc(O)cc1)C(=O)N[C@@H](CCCCNC(=O)CCCCCCCCCCCCCCCO)C(=O)N[C@@H](CCCCN)C(=O)N1CCC[C@@H]1C(=O)N1CCC[C@H]1C(=O)N[C@@H](Cc1ccc(O)cc1)C(=O)N[C@@H](Cc1c[nH]cn1)C(=O)N[C@@H](Cc1ccc(O)cc1)C(=O)N2` [Ex. 21] (cyclo(YHYCSA[dP][Dab]RYCYK(Hexadecanoyl(16-OH))K[dP]P); disulfide 4-11), for which the GI50 in data set [1] was over 50 µM. The GI50 in data set [2] is over 50 µM. Further, in data set [3], the remaining at 24 h, 10 μM came out at 49% and the half-life worked out at 18.6 h. In data set [4], the remaining at 24 h, 10 μM turned out to be 63% and the “mouse pl. T1/2” value was 24 h.

Turning to `CCCCCCCC(=O)NCCCC[C@@H]1NC(=O)[C@H](CCC(N)=O)NC(=O)[C@H](Cc2ccc(O)cc2)NC(=O)[C@@H]2CSSC[C@H](NC(=O)[C@H](Cc3ccc(O)cc3)NC(=O)[C@H](CCCNC(=N)N)NC(=O)[C@H](Cc3ccc(O)cc3)NC(=O)[C@@H]3CCCN3C(=O)[C@H]3CCCN3C1=O)C(=O)N[C@@H](CO)C(=O)N[C@@H](C)C(=O)N1CCC[C@@H]1C(=O)N[C@@H](CCN)C(=O)N[C@@H](CCCNC(=N)N)C(=O)N[C@@H](Cc1ccc(O)cc1)C(=O)N2` [Ex. 32] (cyclo(YRYCSA[dP][Dab]RYCYQK(Octanoyl)[dP]P); disulfide 4-11), the GI50 in data set [1] (HELA cells) is over 24 µM. Further, in data set [2] (COS-7 cells), the GI50 is over 50 µM. In data set [3], the remaining at 24 h, 10 μM stood at 39% and the half-life was 12.9 h.

Consider `CCCCCCCCCCCCCC(=O)N[C@H]1C[C@@H]2C(=O)N[C@@H](CCN)C(=O)N[C@@H](CCCNC(=N)N)C(=O)N[C@@H](Cc3ccc(O)cc3)C(=O)N[C@H]3CSSC[C@H](NC(=O)[C@H]([C@@H](C)O)NC(=O)[C@H](Cc4c[nH]cn4)NC(=O)[C@H](Cc4ccc(O)cc4)NC(=O)[C@@H]4CCCN4C(=O)[C@H]4CCCN4C(=O)[C@H](CCC(N)=O)NC(=O)[C@H](CCC(N)=O)NC(=O)[C@H](Cc4ccc(O)cc4)NC3=O)C(=O)N[C@@H](CCCNC(=N)N)C(=O)NCC(=O)N2C1` [Ex. 4] (cyclo(YHTCRG[X1](Myristoyl)[Dab]RYCYQQ[dP]P); disulfide 4-11), for which the GI50 in data set [1] (HELA cells) and in data set [2] (COS-7 cells) was over 50 µM in each case. Besides, the results for the remaining at 24 h, 10 μM in data set [3] and in data set [4] were 66% and 62%, respectively. Besides, the half-life in data set [3] amounted to 5.25 h. Further, in data set [4], the “mouse pl. T1/2” value is 24 h.

On to `C[C@@H]1NC(=O)[C@H](CO)NC(=O)[C@@H]2CSSC[C@H](NC(=O)[C@H](Cc3ccc(O)cc3)NC(=O)[C@H](CCCNC(=N)N)NC(=O)[C@H](CCN)NC(=O)[C@H]3CCCN3C1=O)C(=O)N[C@@H](Cc1ccc(O)cc1)C(=O)N[C@@H](CCC(N)=O)C(=O)N[C@@H](CCCCNC(=O)CNC(=O)CC[C@@H](C)[C@H]1CC[C@H]3[C@@H]4[C@H](O)C[C@@H]5C[C@H](O)CC[C@]5(C)[C@H]4C[C@H](O)[C@]13C)C(=O)N1CCC[C@@H]1C(=O)N1CCC[C@H]1C(=O)N[C@@H](Cc1ccc(O)cc1)C(=O)N[C@@H](CCCNC(=N)N)C(=O)N[C@@H](Cc1ccc(O)cc1)C(=O)N2` [Ex. 33] (cyclo(YRYCSA[dP][Dab]RYCYQK([Gly-Cholyl])[dP]P); disulfide 4-11), for which the GI50 in data set [1] (HELA cells) was over 18 µM. Besides, the GI50 in data set [2] (COS-7 cells) is over 50 µM. Further, in data set [3], the remaining at 24 h, 10 μM was found to be 61% and the half-life was 20.4 h.

Regarding `C[C@@H](O)[C@@H]1NC(=O)[C@H](Cc2c[nH]cn2)NC(=O)[C@H](Cc2ccc(O)cc2)NC(=O)[C@@H]2CCCN2C(=O)[C@H]2CCCN2C(=O)[C@H](CCC(=O)NC23CC4CC(CC(C4)C2)C3)NC(=O)[C@H](CCC(N)=O)NC(=O)[C@H](Cc2ccc(O)cc2)NC(=O)[C@@H]2CSSC[C@H](NC1=O)C(=O)N[C@@H](CCCNC(=N)N)C(=O)NCC(=O)N1CCC[C@@H]1C(=O)N[C@@H](CCN)C(=O)N[C@@H](CCCNC(=N)N)C(=O)N[C@@H](Cc1ccc(O)cc1)C(=O)N2` [Ex. 36] (cyclo(YHTCRG[dP][Dab]RYCYQE(NH(1-Adamantyl))[dP]P); disulfide 4-11), the GI50 in data set [1] was over 50 µM. This molecule yielded a GI50 in data set [2] of over 50 µM. Moreover, in data set [3], the remaining at 24 h, 10 μM was determined as 53% and the half-life worked out at 23.2 h.

For `C[C@@H](O)[C@@H]1NC(=O)[C@H](Cc2c[nH]cn2)NC(=O)[C@H](Cc2ccc(O)cc2)NC(=O)[C@@H]2CCCN2C(=O)[C@H]2CCCN2C(=O)[C@H](CCC(N)=O)NC(=O)[C@H](CCC(=O)NC23CC4CC(CC(C4)C2)C3)NC(=O)[C@H](Cc2ccc(O)cc2)NC(=O)[C@@H]2CSSC[C@H](NC1=O)C(=O)N[C@@H](CCCNC(=N)N)C(=O)NCC(=O)N1CCC[C@@H]1C(=O)N[C@@H](CCN)C(=O)N[C@@H](CCCNC(=N)N)C(=O)N[C@@H](Cc1ccc(O)cc1)C(=O)N2` [Ex. 31] (cyclo(YHTCRG[dP][Dab]RYCYE(NH(1-Adamantyl))Q[dP]P); disulfide 4-11), in data set [1], the GI50 was over 37 µM. This molecule also returned a GI50 in data set [2] of over 50 µM. Moreover, in data set [3], the remaining at 24 h, 10 μM turned out to be 68% and the “human pl. T1/2” value amounted to 24 h.

Values taken from patent publication US8716242B2, “β-hairpin peptidomimetics” (priority 2009, dated 2014).
